Experimental findings from PubChem BioAssay AID200 (DTP/NCI, 2004) are described below.

Where “and” joins values, the source holds several entries; their conditions need not be identical. Equal values may be shown once. Toxic doses and inconclusive results are not listed.

The assay relates to B6C3F1 mice, B16 melanoma ip, median survival T/C. Briefly: NCI In Vivo Anticancer Drug Screen. Data for tumor model B16 Melanoma (intraperitoneal) in B6C3F1 mice. The settings on record: endpoint: median survival time, higher = longer survival. How it is done: The antitumor activity of compounds was measured in mice bearing transplantable tumors. Survival or tumor size were measured and the results are expressed as the measurement made in the treated group (T) divided by the measurement made in the vehicle treated control group (C). The tumor model used in this assay is B16 Melanoma (intraperitoneal) in B6C3F1 mice

Where [1] appears, read: dose: 5.0 mg/kg/injection, schedule: Q01DX009 (ip), vehicle: saline with Tween-80.
Setting [2] is: dose: 12.5 mg/kg/injection, schedule: Q01DX009 (ip), vehicle: saline with Tween-80.
The mark [3] stands for this setting: dose: 25.0 mg/kg/injection, schedule: Q01DX009 (ip), vehicle: saline with Tween-80.
Where [4] appears, read: dose: 50.0 mg/kg/injection, schedule: Q01DX009 (ip), vehicle: saline with Tween-80.
The mark [5] stands for this setting: dose: 100.0 mg/kg/injection, schedule: Q01DX009 (ip), vehicle: saline with Tween-80.
Setting [6] is: dose: 200.0 mg/kg/injection, schedule: Q01DX009 (ip), vehicle: saline with Tween-80.
[7] abbreviates: dose: 25.0 mg/kg/injection, schedule: Q01DX009 (ip), vehicle: saline.
Setting [8] is: dose: 50.0 mg/kg/injection, schedule: Q01DX009 (ip), vehicle: saline.
Where [9] appears, read: dose: 100.0 mg/kg/injection, schedule: Q01DX009 (ip), vehicle: saline.
Where [10] appears, read: dose: 12.5 mg/kg/injection, schedule: Q01DX009 (ip), vehicle: saline.
Setting [11] is: dose: 3.12 mg/kg/injection, schedule: Q01DX009 (ip), vehicle: saline.
[12] abbreviates: dose: 6.25 mg/kg/injection, schedule: Q01DX009 (ip), vehicle: saline.

Turning to `CC(C)NC(=O)OCc1c(COC(=O)NC(C)C)c(-c2ccc(Cl)c(Cl)c2)n2c1CCC2`, the T/C is 115 % of control (dose: 2.5 mg/kg/injection, schedule: Q01DX009 (ip), vehicle: Klucel (hydroxypropylcellulose) (HPC)); 158 % of control (dose: 5.0 mg/kg/injection, schedule: Q01DX009 (ip), vehicle: Klucel (hydroxypropylcellulose) (HPC)); 159 % of control under setting [1]; 166 % of control and 169 % of control and 176 % of control (dose: 6.25 mg/kg/injection, schedule: Q01DX009 (ip), vehicle: distilled water + Tween-80); 153 % of control and 175 % of control (dose: 10.0 mg/kg/injection, schedule: Q01DX009 (ip), vehicle: Klucel (hydroxypropylcellulose) (HPC)); 196 % of control (dose: 10.0 mg/kg/injection, schedule: Q01DX009 (ip), vehicle: saline with Tween-80). Also, the T/C is 209 % of control (dose: 20.0 mg/kg/injection, schedule: Q01DX009 (ip), vehicle: Klucel (hydroxypropylcellulose) (HPC)); 191 % of control (dose: 20.0 mg/kg/injection, schedule: Q01DX009 (ip), vehicle: saline with Tween-80); 235 % of control and 256 % of control (dose: 40.0 mg/kg/injection, schedule: Q01DX009 (ip), vehicle: Klucel (hydroxypropylcellulose) (HPC)); 251 % of control (dose: 40.0 mg/kg/injection, schedule: Q01DX009 (ip), vehicle: saline with Tween-80); 89 % of control (dose: 80.0 mg/kg/injection, schedule: Q01DX009 (ip), vehicle: saline with Tween-80).

`OC1(CSc2ccccc2)CCCCC1`: the T/C by setting is: under setting [2], 90 % of control and 105 % of control; under setting [3], 93 % of control and 102 % of control; under setting [4], 117 % of control and 95 % of control; under setting [5], 93 % of control and 102 % of control; under setting [6], 105 % of control; (dose: 400.0 mg/kg/injection, schedule: Q01DX009 (ip), vehicle: saline with Tween-80) 89 % of control.

As to `CCN(CC)Cc1cc2[nH]c3c4ccc(Cl)cc4ncc3c2cc1OC`, the T/C is 91 % of control and 102 % of control under setting [2]; 112 % of control and 102 % of control under setting [3]; 98 % of control and 107 % of control under setting [4].

As for `COc1cccc(C2NC(=O)c3c(n[nH]c3N)S2)c1O` (centres undefined), the T/C under setting [2] is 101 % of control; the T/C under setting [3] is 106 % of control; the T/C under setting [4] was 104 % of control; the T/C under setting [5] is 107 % of control; the T/C under setting [6] was 95 % of control.

With `CC(=O)O[C@@H]1C(=O)C=C(C)[C@@H]2[C@@H](OC(=O)C=C(C)C)[C@H]3OC(=O)C[C@H]4[C@@H](C)[C@@H](O)[C@]5(O)OC[C@]34[C@H]5[C@@]12C`, the T/C was 163 % of control (dose: 1.0 mg/kg/injection, schedule: Q01DX005 (ip), vehicle: distilled water + Tween-80); 160 % of control (dose: 2.0 mg/kg/injection, schedule: Q01DX005 (ip), vehicle: distilled water + Tween-80); 155 % of control (dose: 4.0 mg/kg/injection, schedule: Q01DX009 (ip), vehicle: distilled water + Tween-80); 156 % of control (dose: 8.0 mg/kg/injection, schedule: Q01DX005 (ip), vehicle: distilled water + Tween-80); 162 % of control (dose: 8.0 mg/kg/injection, schedule: Q01DX009 (ip), vehicle: distilled water + Tween-80).

In the case of `O=C(Nc1ccc(C2=NCCCN2)cc1)c1ccc(C(=O)Nc2ccc(C3=NCCCN3)cc2)nc1`, the T/C runs as follows: (dose: 0.31 mg/kg/injection, schedule: Q01DX009 (ip), vehicle: saline with Tween-80) 100 % of control; (dose: 0.62 mg/kg/injection, schedule: Q01DX009 (ip), vehicle: saline with Tween-80) 106 % of control; (dose: 1.25 mg/kg/injection, schedule: Q01DX009 (ip), vehicle: saline with Tween-80) 105 % of control; (dose: 2.5 mg/kg/injection, schedule: Q01DX009 (ip), vehicle: saline with Tween-80) 100 % of control; under setting [1], 100 % of control.

For the compound `CN1[C@@H](CC(=O)c2ccccc2)CCC[C@H]1CC(=O)c1ccccc1`, the T/C by setting is: under setting [7], 104 % of control; under setting [8], 112 % of control; under setting [9], 98 % of control.

As for `CC(=O)CC(c1ccccc1)c1c(O)c2ccccc2oc1=O` (centres undefined), the T/C runs as follows: (dose: 0.05 mg/kg/injection, schedule: Q01DX009 (ip), vehicle: Klucel (hydroxypropylcellulose) (HPC)) 95 % of control; (dose: 0.05 mg/kg/injection, schedule: Q01DX009 (ip), vehicle: saline with Tween-80) 121 % of control and 106 % of control; (dose: 0.1 mg/kg/injection, schedule: Q01DX009 (ip), vehicle: Klucel (hydroxypropylcellulose) (HPC)) 104 % of control; (dose: 0.1 mg/kg/injection, schedule: Q01DX009 (ip), vehicle: saline with Tween-80) 91 % of control; (dose: 0.2 mg/kg/injection, schedule: Q01DX009 (ip), vehicle: Klucel (hydroxypropylcellulose) (HPC)) 93 % of control; (dose: 0.2 mg/kg/injection, schedule: Q01DX009 (ip), vehicle: saline with Tween-80) 124 % of control and 87 % of control. Further, the T/C was 108 % of control (dose: 0.4 mg/kg/injection, schedule: Q01DX009 (ip), vehicle: Klucel (hydroxypropylcellulose) (HPC)); 111 % of control (dose: 0.4 mg/kg/injection, schedule: Q01DX009 (ip), vehicle: saline with Tween-80); 98 % of control (dose: 0.8 mg/kg/injection, schedule: Q01DX009 (ip), vehicle: Klucel (hydroxypropylcellulose) (HPC)); 103 % of control (dose: 0.8 mg/kg/injection, schedule: Q01DX009 (ip), vehicle: saline with Tween-80).

`C=C(C)C(=O)OC1C/C(CO)=C\C(O)C/C(C)=C/C2OC(=O)C(=C)C21` (centres undefined): the T/C was 101 % of control (dose: 1.25 mg/kg/injection, schedule: Q01DX009 (ip), vehicle: saline + alcohol); 100 % of control (dose: 2.5 mg/kg/injection, schedule: Q01DX009 (ip), vehicle: saline + alcohol); 114 % of control (dose: 5.0 mg/kg/injection, schedule: Q01DX009 (ip), vehicle: saline + alcohol); 112 % of control (dose: 10.0 mg/kg/injection, schedule: Q01DX009 (ip), vehicle: saline + alcohol).

As for `CCN(CC)CCOC(=O)Cc1cccc2c(=O)cc(-c3ccccc3)oc12`, the T/C by setting is: under setting [10], 97 % of control and 103 % of control; under setting [7], 115 % of control and 101 % of control; under setting [8], 109 % of control and 99 % of control.

As to `O=C1C(CO)=C[C@@H](O)[C@H]2O[C@@H]12`, the T/C under setting [11] is 88 % of control; the T/C under setting [12] was 98 % of control; the T/C under setting [10] was 100 % of control; the T/C under setting [7] was 96 % of control; the T/C under setting [8] is 106 % of control.

With `[I][Hg][CH2]C1COC([CH2][Hg][I])CO1` (centres undefined), the T/C runs as follows: (dose: 3.12 mg/kg/injection, schedule: Q01DX009 (ip), vehicle: saline with Tween-80) 93 % of control; under setting [11], 97 % of control; (dose: 6.25 mg/kg/injection, schedule: Q01DX009 (ip), vehicle: saline with Tween-80) 109 % of control; under setting [12], 101 % of control; under setting [2], 113 % of control; under setting [10], 87 % of control. Also, the T/C was 119 % of control under setting [3]; 100 % of control under setting [7]; 106 % of control under setting [4]; 99 % of control under setting [8]; 96 % of control under setting [9].

With `CN(C)CCNc1ccc(CO)c2sc3ccc(O)cc3c(=O)c12`, the T/C reads like this: (dose: 18.0 mg/kg/injection, schedule: Q01DX009 (ip), vehicle: saline with Tween-80) 327 % of control; (dose: 30.0 mg/kg/injection, schedule: Q01DX009 (ip), vehicle: saline with Tween-80) 218 % of control; under setting [4], 295 % of control; (dose: 83.33 mg/kg/injection, schedule: Q01DX009 (ip), vehicle: saline with Tween-80) 327 % of control.

With `COC1C(O)CC(OC2CC(Oc3cc4cc5c(c(O)c4c(O)c3C)C(=O)[C@@H](OC3CC(OC4CC(OC6CC(C)(O)C(OC(C)=O)C(C)O6)C(O)C(C)O4)C(O)C(C)O3)[C@H]([C@H](OC)C(=O)[C@@H](O)[C@@H](C)O)C5)OC(C)C2OC(C)=O)OC1C` (some centres undefined), the T/C reads like this: (dose: 0.01 mg/kg/injection, schedule: Q01DX009 (ip), vehicle: Klucel (hydroxypropylcellulose) (HPC)) 165 % of control; (dose: 0.04 mg/kg/injection, schedule: Q01DX009 (ip), vehicle: Klucel (hydroxypropylcellulose) (HPC)) 151 % of control; (dose: 0.08 mg/kg/injection, schedule: Q01DX009 (ip), vehicle: Klucel (hydroxypropylcellulose) (HPC)) 196 % of control; (dose: 0.16 mg/kg/injection, schedule: Q01DX009 (ip), vehicle: Klucel (hydroxypropylcellulose) (HPC)) 171 % of control.
